Measurements published in patent US20240034753A1, “THERAPEUTIC PEPTIDES” (COHBAR, INC., priority 2020, published 2024).
Square brackets hold non-standard residues; d marks the D form. Ends that are not written are not given here. Peptide text beside a SMILES is read from it. Nle = CCCC[C@H](N)C(=O)O

Columns and labels:
[1] = tested on: C2C12 Mouse Myoblasts; assay: Glucose utilization (glucose remaining in medium); assay type: cell-based; conditions: peptide 10 μM, 18-22 hours, relative to 0.1% DMSO treated control cells
Description: The effect of the peptides on glucose metabolism can be assessed using an assay of glucose utilization in cultured cells such as mouse myoblasts. Peptides were initially prepared as 10 mM stock in DMSO and used at a final concentration of 10 μM (0.1% DMSO). C2C12 mouse myoblast cell line was purchased from American Type Culture Collection (Manassas, VA). C2C12 cultures were maintained at 37° C. in a humidified atmosphere of 5% CO2/95% air with medium changes every second day. C2C12 cells were grown in DMEM (1 g/L glucose) supplemented with 10% FBS with 100 IU/ml penicillin and 100 μg/ml streptomycin. C2C12 cells were seeded at 7,000 cells per well on 96-well plates and cultured to confluence. Once the cell reached confluence the media was changed to DMEM (1 g/L glucose) supplemented with 2% HS with 100 IU/ml penicillin and 100 μg/ml streptomycin and maintained at 37° C. in a humidified atmosphere of 5% CO2/95% air. 5 days post-induction of differentiation fresh DMEM (1 g/L glucose) supplemented with 2% HS with 100 IU/ml penicillin and 100 μg/ml streptomycin was added to cultures. Cells were maintained at 37° C. in a humidified atmosphere of 5% CO2 and 95% air for 5 hours. After 5 hours test peptides at 10 μM or controls (0.5 mM or 1 mM metformin in 1% DMSO) prepared in fresh differentiation medium were added to cells and the cultures were maintained at 37° C. in a humidified atmosphere of 5% CO2/95% air for 18-22 hours. At the end of the incubation culture media was removed from the cells and the remaining glucose concentration was measured using a Glucose Assay kit (Abcam) according to the manufacturer's instructions, using a Cytation 3 plate reader at 570 nm (BioTek, Winooski, VT). Glucose concentrations in the medium were calculated relative to 0.1% DMSO treated control cells. The relative standard deviation of the result for the 0.1% DMSO treated control was <20%. Metformin was used as a positive control for reduction of glucose levels (increased glucose utilization glucose levels for treatment with metformin (1 mM) treatment were <20% of the 0.1% DMSO treated control value. The results are reported in Table 11.

[2] = tested on: A172 human brain glioblastoma cell line; assay: Caspase-Glo 3/7 assay of caspase 3/7 activity in cultured cells; assay type: cell-based; conditions: peptide 10 μM, 18-20 hours, relative to 0.1% DMSO control
Description: The effect of the peptides on cell death/survival can be assessed using a […] assay in cultured cells. Peptides were dissolved at 10 mM in DMSO as stock solutions for use at a final concentration of 10 μM. […] Caspase-Glo 3/7 Assay Reagent was purchased from Promega (Madison, WI). A172 human brain glioblastoma cell line was purchased from American Type Culture Collection (Manassas, VA). A172 cells were grown in DMEM supplemented with 10% FBS with 100 IU/ml penicillin and 100 μg/ml streptomycin. Cultures were maintained at 37° C. in a humidified atmosphere of 5% CO2/95% air. A172 cells were seeded at 8,000 cells per well on 96-well plates. […] Caspase 3/7 activity was determined using a Caspase-Glo 3/7 Assay kit (Promega) according to the manufacturer's instructions. Luminescence for each sample well on the plate was measured using a Cytation 3 plate reader (BioTek, Winooski, VT). Activity was calculated relative to 0.1% DMSO control.

[3] = tested on: SH-SY5Y Neuroblastoma Cells Exposed to Staurosporine; assay: ATP levels in cells exposed to staurosporine (CellTiter-Glo); assay type: cell-based, human; conditions: peptide 10 μM plus staurosporine (40 μM), 18-20 hours; <100% cytoprotective, >100% synergistic
Description: Peptides were initially prepared as 10 mM stock in DMSO and tested at a final concentration of 10 μM (0.1% DMSO). […] […] CellTiter-Glo® Assay kit was purchased from Promega. SH-SY5Y human neuroblastoma cell line was purchased from American Type Culture Collection (Manassas, VA) and licensed from Memorial Sloan-Kettering Cancer Center (New York, NY). SH-SY5Y cells were grown in DMEM/F12 medium supplemented with 10% FBS with 100 IU/ml penicillin and 100 μg/ml streptomycin. Cultures were maintained at 37° C. in a humidified atmosphere of 5% CO2/95% air. SH-SY5Y cells were seeded at 30,000 cells per well on 96-well plates. […] ATP levels were determined using a CellTiter-Glo Assay kit (Promega) according to the manufacturer's instructions. Luminescence for each sample well on the plate was measured using a Cytation 3 plate reader (BioTek, Winooski, VT). […] A value less than 100% is indicative of a cytoprotective effect, while a value greater than 100% is indicative of a synergistic effect on viability.

[4] = tested on: A172 Cells; assay: PrestoBlue cell viability assay; assay type: cell-based; conditions: human, 10 μM
Description: The effect of the peptides on cell viability can be assessed in cultured cells using suitable assay of viability such as the PrestoBlue® assay (Thermo Fisher Scientific, Waltham, MA). Peptides were initially prepared as 10 mM stock in DMSO and tested at a final concentration of 10 μM (0.1% DMSO). […] PrestoBlue Assay Reagent was purchased from Thermo Fisher Scientific. A172 human brain glioblastoma cell line was purchased from American Type Culture Collection (Manassas, VA). A172 cells were grown in DMEM supplemented with 10% FBS with 100 IU/ml penicillin and 100 μg/ml streptomycin. Cultures were maintained at 37° C. in a humidified atmosphere of 5% CO2/95% air. A172 cells were seeded at 8,000 cells per well on 96-well plates. […] Cell viability was determined using a PrestoBlue Assay reagent […] according to the manufacturer's instructions. Absorption for each sample well on the plate was measured using a Cytation 3 plate reader at 560 nm and 590 nm (BioTek, Winooski, VT). Activity was calculated relative to 0.1% DMSO untreated control. Treatment with 0.1% DMSO alone was used as the cell viability activity control. The relative standard deviation of the DMSO control was <5%.

Molecule	Glucose Utilization (glucose concentration in medium), Percent of Untreated Control [1]	Caspase 3/7 Activity, Percent of Control Activity [2]	Percent of ATP Reduction Induced by Control [3]	PrestoBlue cell viability, Percent of Control Activity [4]
CSCC[C@H](NC(=O)CNC(=O)[C@@H](C)NC(=O)[C@H](CC(N)=O)NC(=O)[C@H](Cc1c[nH]cn1)NC(=O)[C@H](CC(C)C)NC(=O)[C@H](CCC(=O)O)NC(=O)[C@H](Cc1c[nH]c2ccccc12)NC(=O)[C@H](CCC(N)=O)NC(=O)[C@@H](N)CCCNC(=N)N)C(=O)N[C@@H](CO)C(=O)N[C@@H](C)C(=O)N[C@@H](Cc1ccccc1)C(=O)N[C@@H](CS)C(=O)O [compound 15] (H-RQWELHN[dA]GMSAFC-OH; N-terminus and C-terminus assumed)	115.1%	114.6%	88.4%	98.8%
CC[C@H](C)[C@H](NC(=O)[C@H](CC(C)C)NC(=O)[C@H](C)NC(=O)[C@@H](N)CCSC)C(=O)N[C@@H](CC(C)C)C(=O)N[C@H](C(=O)N[C@@H](CC(C)C)C(=O)N[C@H](C(=O)N[C@@H](CC(C)C)C(=O)N[C@H](C)C(=O)O)C(C)C)[C@@H](C)O [compound 4] (H-MALILTLVL[dA]-OH; N-terminus and C-terminus assumed)	117.2%	96.4%	94.0%	99.7%
CC[C@H](C)[C@H](NC(=O)[C@@H](NC(=O)CNC(=O)[C@@H](C)NC(=O)[C@@H](N)CCSC)C(C)C)C(=O)N[C@@H](CCCNC(=N)N)C(=O)NCC(=O)N[C@H](C(=O)N[C@@H](CC(C)C)C(=O)N[C@H](C(=O)N[C@@H](CC(C)C)C(=O)O)C(C)C)C(C)C [compound 9] (H-M[dA]GVIRGVLVL-OH; N-terminus and C-terminus assumed)	128.4%	89.3%	95.1%	94.8%
MRQWILHNGGMSFFC [compound 12]	113.6%	109.7%	98.0%	100.5%
CSCC[C@H](NC(=O)[C@H](CCCNC(=N)N)NC(=O)[C@H](CCCNC(=N)N)NC(=O)[C@@H](N)CCCNC(=N)N)C(=O)N[C@@H](Cc1ccccc1)C(=O)N[C@@H](CO)C(=O)N[C@@H](CS)C(=O)N[C@@H](Cc1ccc(O)cc1)C(=O)N[C@H](C)C(=O)N[C@@H](Cc1ccc(O)cc1)C(=O)O [compound 19] (H-RRRMFSCY[dA]Y-OH; N-terminus and C-terminus assumed)	115.7%	93.7%	99.5%	98.8%
CC[C@H](C)[C@H](NC(=O)[C@H](CC(C)C)NC(=O)[C@H](CC(C)C)NC(=O)[C@@H](N)CCSC)C(=O)N[C@@H](CC(C)C)C(=O)N[C@H](C(=O)N[C@@H](CC(C)C)C(=O)N[C@H](C(=O)N[C@@H](CC(C)C)C(=O)N[C@H](C)C(=O)O)C(C)C)[C@@H](C)O [compound 3] (H-MLLILTLVL[dA]-OH; N-terminus and C-terminus assumed)	105.2%	90.9%	102.7%	96.5%
RQWILHNGGMSFFC [compound 13]	115.0%	115.8%	103.8%	99.1%
CC[C@H](C)[C@H](NC(=O)[C@@H](NC(=O)[C@H](Cc1c[nH]cn1)NC(=O)[C@H](CCCNC(=N)N)NC(=O)[C@H](CC(=O)O)NC(=O)[C@H](Cc1ccc(O)cc1)NC(=O)[C@H](CC(C)C)NC(=O)[C@H](CC(C)C)NC(=O)[C@@H](NC(=O)[C@@H](N)Cc1c[nH]c2ccccc12)C(C)C)C(C)C)C(=O)NCC(=O)NCC(=O)N[C@@H](CO)C(=O)N[C@@H](CC(C)C)C(=O)N[C@@H](CS)C(=O)N[C@H](C(=O)N[C@H](C(=O)N[C@H](C(=O)N[C@@H](CCC(N)=O)C(=O)N[C@H](C(=O)N[C@@H](CCC(=O)O)C(=O)N[C@H](C)C(=O)N[C@@H](Cc1ccc(O)cc1)C(=O)O)C(C)C)C(C)C)C(C)C)C(C)C [compound 23] (H-WVLLYDRHVIGGSLCVVVQVE[dA]Y-OH; N-terminus and C-terminus assumed)	109.6%	104.3%	69.6%	97.1%
CCCC[C@H](NC(=O)[C@H](CCCNC(=N)N)NC(=O)[C@H](CCCNC(=N)N)NC(=O)[C@@H](N)CCCNC(=N)N)C(=O)N[C@@H](Cc1ccccc1)C(=O)N[C@@H](CO)C(=O)N[C@@H](CS)C(=O)N[C@@H](Cc1ccc(O)cc1)C(=O)N[C@H](C)C(=O)N[C@@H](Cc1ccc(O)cc1)C(=O)O [compound 20] (H-RRR[Nle]FSCY[dA]Y-OH; N-terminus and C-terminus assumed)	113.2%	85.4%	101.4%	104.7%
MMAGVIRGVLVL [compound 7]	128.3%	84.6%	103.3%	86.2%
GWVLLYDRHVIGGSLCVVVQVEAY [compound 22]	70.4%	105.0%	73.1%	96.5%
MAGVIRGVLVL [compound 8]	115.0%	86.7%	92.6%	92.0%
